Converted amounts (≈) assume the structure as drawn.
Assays:
Mouse blood levels = conditions: mouse; for half-life: T 1/2
Source text: Table 3 contains comparative blood level data for mice treated orally and intramuscularly with the hydroxyphenylglycyl derivatives.

[1] = tested on: Gn-Ia organisms (Gram-negative bacteria sensitive to ampicillin and cephalothin); assay: In vitro activity, agar dilution, group of five strains; format: cell-based
Source text: (§1) Each of these groups of organisms is constituted of five individual strains of microorganism. The Gp-Ia organisms are Gram-positive staphylococci which are sensitive to penicillin. The Gp-Ib organisms are Gram-positive staphylococci which are resistant to penicillin and produce penicillinase. The Gn-Ia organisms are Gram-negative bacteria which are sensitive to ampicillin and cephalothin. The Gn-Ib organisms are Gram-negative bacteria which are resistant to ampicillin and cephalothin.

S. aureus BX-1633-2 = assay: MIC, agar dilution technique (Mueller-Hinton Agar); format: cell-based; conditions: Staphylococcus aureus, BX16332; S. aureus BX-1633-2; Gp-Ib, penicillin resistant; read-out: Minimum Inhibitory Concentration
Source text: as §1

S. aureus No. 193 = assay: MIC, agar dilution technique (Mueller-Hinton Agar); format: cell-based; conditions: Staphylococcus aureus, Gp-Ib, penicillin resistant, read-out: Minimum Inhibitory Concentration
Source text: as §1

K. pneumoniae D11 = assay: MIC, agar dilution technique (Mueller-Hinton Agar); format: cell-based; conditions: Klebsiella pneumoniae; K. pneumoniae D11; Gn-Ia, ampicillin and cephalothin sensitive; read-out: Minimum Inhibitory Concentration
Source text: as §1

S. aureus Terajima = assay: MIC, agar dilution technique (Mueller-Hinton Agar); format: cell-based; conditions: Staphylococcus aureus, Gp-Ia, penicillin sensitive, read-out: Minimum Inhibitory Concentration
Source text: as §1

S. aureus A9601 = assay: MIC, agar dilution technique (Mueller-Hinton Agar); format: cell-based; conditions: Staphylococcus aureus; S. aureus A9601; Gp-Ia, penicillin sensitive; read-out: Minimum Inhibitory Concentration
Source text: as §1

S. aureus A9534 = assay: MIC, agar dilution technique (Mueller-Hinton Agar); format: cell-based; conditions: Staphylococcus aureus, Gp-Ia, penicillin sensitive, read-out: Minimum Inhibitory Concentration
Source text: as §1

E. coli A9660 = assay: MIC, agar dilution technique (Mueller-Hinton Agar); format: cell-based; conditions: Escherichia coli; E. coli A9660; Gn-Ia, ampicillin and cephalothin sensitive; read-out: Minimum Inhibitory Concentration
Source text: as §1

E. coli A15148 = assay: MIC, agar dilution technique (Mueller-Hinton Agar); format: cell-based; conditions: Escherichia coli; E. coli A15148; Gn-Ib, ampicillin and cephalothin resistant; read-out: Minimum Inhibitory Concentration
Source text: as §1

P. mirabilis A9900 = assay: MIC, agar dilution technique (Mueller-Hinton Agar); format: cell-based; conditions: Proteus mirabilis; P. mirabilis A9900; Gn-Ia, ampicillin and cephalothin sensitive; read-out: Minimum Inhibitory Concentration
Source text: as §1

S. aureus Russell = assay: MIC, agar dilution technique (Mueller-Hinton Agar); format: cell-based; conditions: Staphylococcus aureus; S. aureus Russell; Gp-Ib, penicillin resistant; read-out: Minimum Inhibitory Concentration
Source text: as §1

K. pneumoniae A20346 = assay: MIC, agar dilution technique (Mueller-Hinton Agar); format: cell-based; conditions: Klebsiella pneumoniae; K. pneumoniae A20346; Gn-Ib, ampicillin and cephalothin resistant; read-out: Minimum Inhibitory Concentration
Source text: as §1

S. aureus A9497 = assay: MIC, agar dilution technique (Mueller-Hinton Agar); format: cell-based; conditions: Staphylococcus aureus, Gp-Ia, penicillin sensitive, read-out: Minimum Inhibitory Concentration
Source text: as §1

E. coli Juhl = assay: MIC, agar dilution technique (Mueller-Hinton Agar); format: cell-based; conditions: Escherichia coli; E. coli Juhl; Gn-Ia, ampicillin and cephalothin sensitive; read-out: Minimum Inhibitory Concentration
Source text: as §1

P. mirabilis A9554 = assay: MIC, agar dilution technique (Mueller-Hinton Agar); format: cell-based; conditions: Proteus mirabilis; P. mirabilis A9554; Gn-Ia, ampicillin and cephalothin sensitive; read-out: Minimum Inhibitory Concentration
Source text: as §1

E coli RGN-823 = assay: MIC, agar dilution technique (Mueller-Hinton Agar); format: cell-based; conditions: Escherichia coli, RGN823, Gn-Ib, ampicillin and cephalothin resistant, read-out: Minimum Inhibitory Concentration
Source text: as §1

S. aureus Smith = assay: MIC, agar dilution technique (Mueller-Hinton Agar); format: cell-based; conditions: Staphylococcus aureus, Gp-Ia, penicillin sensitive, read-out: Minimum Inhibitory Concentration
Source text: as §1

S. aureus A9602 = assay: MIC, agar dilution technique (Mueller-Hinton Agar); format: cell-based; conditions: Staphylococcus aureus; S. aureus A9602; Gp-Ib, penicillin resistant; read-out: Minimum Inhibitory Concentration
Source text: as §1

E. coli A20341-1 = assay: MIC, agar dilution technique (Mueller-Hinton Agar); format: cell-based; conditions: Escherichia coli, A203411; E. coli A20341-1; Gn-Ib, ampicillin and cephalothin resistant; read-out: Minimum Inhibitory Concentration
Source text: as §1

S. aureus A15092 = assay: MIC, agar dilution technique (Mueller-Hinton Agar); format: cell-based; conditions: Staphylococcus aureus, Gp-Ib, penicillin resistant, read-out: Minimum Inhibitory Concentration
Source text: as §1

K. pneumoniae A20345 = assay: MIC, agar dilution technique (Mueller-Hinton Agar); format: cell-based; conditions: Klebsiella pneumoniae, Gn-Ib, ampicillin and cephalothin resistant, read-out: Minimum Inhibitory Concentration
Source text: as §1

Q: With C/C=C\C1=C(C(=O)O)N2C(=O)C(NC(=O)[C@H](N)c3ccc(O)cc3)[C@H]2SC1 (stereo partly drawn) [BMY-28100, 7-[D-2-amino-2-(4-hydroxyphenyl)acetamido]-3-[(Z)-1-propen-1-yl]-3-cephem-4-carboxylic acid] as the compound, how does the concentration at 10 min (Mouse blood levels; blood, im, 20 mg/kg) read?
A: 14000 ng/mL

Q: What about the concentration at 20 min (Mouse blood levels; blood, im, 20 mg/kg) of the same compound?
A: 15000 ng/mL

Q: What about the concentration at 0.5 h (Mouse blood levels; blood, im, 20 mg/kg) of the same compound?
A: 12000 ng/mL

Q: And the concentration at 40 min (Mouse blood levels; blood, im, 20 mg/kg)?
A: 8500 ng/mL

Q: And the concentration at 50 min (Mouse blood levels; blood, im, 20 mg/kg)?
A: 7500 ng/mL

Q: And the concentration at 1 h (Mouse blood levels; blood, im, 20 mg/kg)?
A: 5400 ng/mL

Q: What about the concentration at 1.5 h (Mouse blood levels; blood, im, 20 mg/kg) of the same compound?
A: 2500 ng/mL

Q: And the concentration at 2 h (Mouse blood levels; blood, im, 20 mg/kg)?
A: 1600 ng/mL

Q: And the concentration at 0.5 h (Mouse blood levels; blood, po, 20 mg/kg)?
A: 9300 ng/mL

Q: What about the concentration at 1 h (Mouse blood levels; blood, po, 20 mg/kg) of the same compound?
A: 6900 ng/mL

Q: And the concentration at 2 h (Mouse blood levels; blood, po, 20 mg/kg)?
A: 4200 ng/mL

Q: And the concentration at 3 h (Mouse blood levels; blood, po, 20 mg/kg)?
A: 2500 ng/mL

Q: What about the concentration at 4 h (Mouse blood levels; blood, po, 20 mg/kg) of the same compound?
A: 970 ng/mL

Q: And the concentration at 5 h (Mouse blood levels; blood, po, 20 mg/kg)?
A: 810 ng/mL

Q: What about the concentration at 6 h (Mouse blood levels; blood, po, 20 mg/kg) of the same compound?
A: 650 ng/mL

Q: And the concentration at 7 h (Mouse blood levels; blood, po, 20 mg/kg)?
A: 340 ng/mL

Q: And the concentration at 0.5 h (Mouse blood levels; blood, po, 100 mg/kg)?
A: 33000 ng/mL

Q: What about the concentration at 1 h (Mouse blood levels; blood, po, 100 mg/kg) of the same compound?
A: 17000 ng/mL

Q: What about the concentration at 2 h (Mouse blood levels; blood, po, 100 mg/kg) of the same compound?
A: 6500 ng/mL

Q: And the concentration at 3 h (Mouse blood levels; blood, po, 100 mg/kg)?
A: 4500 ng/mL

Q: And the concentration at 4 h (Mouse blood levels; blood, po, 100 mg/kg)?
A: 3300 ng/mL

Q: And the concentration at 5 h (Mouse blood levels; blood, po, 100 mg/kg)?
A: 2700 ng/mL

Q: What about the concentration at 6 h (Mouse blood levels; blood, po, 100 mg/kg) of the same compound?
A: 2500 ng/mL

Q: And the concentration at 7 h (Mouse blood levels; blood, po, 100 mg/kg)?
A: 1700 ng/mL

Q: And the AUC (Mouse blood levels; in vivo, im, 20 mg/kg)?
A: 13000 ng·h/mL

Q: What about the half-life (Mouse blood levels; in vivo, im, 20 mg/kg) of the same compound?
A: 0.52 h

Q: And the Cmax (Mouse blood levels; in vivo, po, 20 mg/kg)?
A: 12000 ng/mL

Q: And the “T 1/2” value (Mouse blood levels; in vivo, po, 20 mg/kg)?
A: 2.3 h

Q: What about the AUC (Mouse blood levels; in vivo, po, 20 mg/kg) of the same compound?
A: 20000 ng·h/mL

Q: What about the half-life (Mouse blood levels; in vivo, po, 20 mg/kg) of the same compound?
A: 1.4 h

Q: And the AUC (Mouse blood levels; in vivo, po, 100 mg/kg)?
A: 51000 ng·h/mL

Q: And the half-life (Mouse blood levels; in vivo, po, 100 mg/kg)?
A: 2.1 h

Q: And the “activity relative to cephalexin and cefaclor” value [1]?
A: more active than cephalexin and slightly better than cefaclor

Q: And the MIC (S. aureus BX-1633-2)?
A: 0.8 µg/mL (≈ 2.05 µM)

Q: What about the MIC (S. aureus No. 193) of the same compound?
A: 1.6 µg/mL (≈ 4.11 µM)

Q: And the MIC (K. pneumoniae D11)?
A: 0.8 µg/mL (≈ 2.05 µM)

Q: And the MIC (S. aureus Terajima)?
A: 0.4 µg/mL (≈ 1.03 µM)

Q: What about the MIC (S. aureus A9601) of the same compound?
A: 0.8 µg/mL (≈ 2.05 µM)

Q: What about the MIC (S. aureus A9534) of the same compound?
A: 0.4 µg/mL (≈ 1.03 µM)

Q: What about the MIC (E. coli A9660) of the same compound?
A: 0.8 µg/mL (≈ 2.05 µM)

Q: What about the MIC (E. coli A15148) of the same compound?
A: 50 µg/mL (≈ 128 µM)

Q: And the MIC (P. mirabilis A9900)?
A: 0.8 µg/mL (≈ 2.05 µM)

Q: What about the MIC (S. aureus Russell) of the same compound?
A: 0.8 µg/mL (≈ 2.05 µM)

Q: What about the MIC (K. pneumoniae A20346) of the same compound?
A: 25 µg/mL (≈ 64.2 µM)

Q: And the MIC (S. aureus A9497)?
A: 0.4 µg/mL (≈ 1.03 µM)

Q: And the MIC (E. coli Juhl)?
A: 1.6 µg/mL (≈ 4.11 µM)

Q: What about the MIC (P. mirabilis A9554) of the same compound?
A: 0.8 µg/mL (≈ 2.05 µM)

Q: What about the MIC (E coli RGN-823) of the same compound?
A: > 50 µg/mL

Q: What about the MIC (S. aureus Smith) of the same compound?
A: 0.4 µg/mL (≈ 1.03 µM)

Q: And the MIC (S. aureus A9602)?
A: 0.8 µg/mL (≈ 2.05 µM)

Q: And the MIC (E. coli A20341-1)?
A: 25 µg/mL (≈ 64.2 µM)

Q: What about the MIC (S. aureus A15092) of the same compound?
A: 1.6 µg/mL (≈ 4.11 µM)

Q: What about the MIC (K. pneumoniae A20345) of the same compound?
A: 6.3 µg/mL (≈ 16.2 µM)

— patent publication US4619925A, “3-Propenyl cephalosporin derivatives” (priority 1985, dated 1986)
